Source: US5475087A, “Antagonists of human granulocyte-macrophage colony stimulating factor derived from the carboxyl terminus” (Schering Corporation, priority 1994, dated 1995)

What was measured:
[1] = tested on: GM-CSF stimulation of KG-1 cell proliferation; assay: KG-1 cell proliferation assay (MTT); format: cell-based, human
Procedure: The assay for GM-CSF is based on stimulation of proliferation of suitable cells such as KG-1 cells, a cell line established from the bone marrow of a patient with acute myelogenous leukemia. AML-193 cells can also be used in this assay. AML-193 are cells as described in B. Lange et al., Blood, 70: 192-199 (1987). Cells are incubated in microtiter plate wells with dilutions of GM-CSF for about 6 days and then incubated for about an additional 4 hours with the tetrazolium salt MTT (3-(4,5-dimethylthiozol-2-yl)-2,5-diphenyltetrazolium bromide). MTT is converted by mitochondrial dehydrogenase enzymes to a colored reaction product, formazan (Mosmann, I. (1983) J. Immunological Methods 65, 55-63). The formazan is extracted with acidified isopropanol and measured spectrophotometrically. The observed optical density is directly proportional to the log2 cell concentration. The results are expressed as ΔO.D., where ΔO.D. is the optical density of the sample minus the optical density of a baseline control lacking GM-CSF. […] The formazan is extracted with acidified isopropanol and measured spectrophotometrically. […] The results are expressed as ΔO.D., where ΔO.D. is the optical density of the sample minus the optical density of a baseline control lacking GM-CSF. […]

[2] = tested on: GM-CSF receptors on KG-1 cells; assay: GM-CSF receptor binding assay on KG-1 cells; set-up: species or system human; conditions: 2700 sites/cell, read-out: Kd, low affinity site
Procedure: GM-CSF is radioiodinated by the method of Bolton and Hunter (Bolton, A. E. & Hunter, W. M. (1973) Biochem. J. 133, 529-539) and purified by gel filtration on a Sephadex G-25 column (PD-10, Pharmacia). The resulting ^125 I-GM-CSF has a specific radioactivity of about 1-3×10^6μCi/μMole and a stoichiometry of 0.4-1.2 moles ^125 I per mole of GM-CSF.
The samples are incubated at about 22° C. or 4° C. for 1 hour or 2 hours, respectively. Centrifugation for 21/2 minutes at 600×g yields a cell pellet which is washed twice with IMDM-10% FCS.
To measure the displacement of ^125 I-GM-CSF from receptors by polyclonal antibodies, antisera or pre-immune sera are included in the binding assays. Antibodies that recognize GM-CSF are incubated for about 10 minutes with ^125 I-GM-CSF prior to initiating binding by the addition of KG-1 cells, AML-193 cells or placental membranes. The sheep polyclonal antibody 1418, which recognized the GM-CSF receptor, is pre-incubated for about 10 minutes with KG-1 cells, AML-193 cells or placental membranes. Binding is initiated by ^125 I-GM-CSF addition.
GM-CSF (an article of commerce available, e.g., from Genzyme Corporation, Boston, Mass.) was radioiodinated by the method of Bolton and Hunter [Bolton, A. E. & Hunter, W. M., Biochem., J., 133: 529-539 (1973)] and purified by gel filtration on a Sephadex G-25 column (PD-10, Pharmacia). […]

[3] = target: GM-CSF receptors on placental membranes; assay: GM-CSF receptor binding assay on placental membranes
Procedure: Placental membranes are prepared by homogenization, centrifugation to remove the 100×g fraction, and thorough washing of the 27,300×g fraction. Protease inhibitors may be present in the homogenization and wash buffers. […] Following incubation for about 1 hour at about 22° C., samples are centrifuged for about 21/2 minutes at 800×g and the placental membrane pellet washed twice with IMDM-10% FCS. Cell pellets are counted on a gamma counter. Saturating concentrations of unlabeled GM-CSF are added to control assays to measure non-specific binding. To measure the displacement of ^125 I-GM-CSF from receptors by polyclonal antibodies, antisera or pre-immune sera are included in the binding assays. Antibodies that recognize GM-CSF are incubated for about 10 minutes with ^125 I-GM-CSF prior to initiating binding by the addition of KG-1 cells, AML-193 cells or placental membranes. The sheep polyclonal antibody 1418, which recognized the GM-CSF receptor, is pre-incubated for about 10 minutes with KG-1 cells, AML-193 cells or placental membranes. Binding is initiated by ^125 I-GM-CSF addition. Placental membranes were prepared by homogenization, centrifugation to remove the 100×g fraction, and thorough washing of the 27,300×g fraction. Protease inhibitors were present in the homogenization and wash buffers. […] Cell pellets were counted on a gamma counter. […]

Kd [3]: 0.86 nM
Substance: ^125 I-GM-CSF: GM-CSF radioiodinated by the method of Bolton and Hunter, purified by gel filtration
biological activity compared with unlabeled GM-CSF [1]: same biological activity as unlabeled GM-CSF
Kd [2]: 0.73 nM
